In PubChem BioAssay (NCI):
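These data come from cells grown in 96-well plates and exposed to compound for 48 hours at five concentrations. Here, GI50 denotes the concentration required for 50% inhibition of growth. TGI marks complete inhibition of growth.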

How the values were obtained:
Experiment in all cases: NCI-60 cell line screen, 48 h
786-0 renal = tested on: 786-0 renal
A498 renal = tested on: A498 renal
A549 NSCLC = tested on: A549 NSCLC
ACHN renal = tested on: ACHN renal
BT-549 breast = tested on: BT-549 breast
CAKI-1 renal = tested on: CAKI-1 renal
CCRF-CEM leukemia = tested on: CCRF-CEM leukemia
COLO 205 colon = tested on: COLO 205 colon
DU-145 prostate = tested on: DU-145 prostate
EKVX NSCLC = tested on: EKVX NSCLC
HCC-2998 colon = tested on: HCC-2998 colon
HCT-116 colon = tested on: HCT-116 colon
HCT-15 colon = tested on: HCT-15 colon
HL-60(TB) leukemia = tested on: HL-60(TB) leukemia
HOP-62 NSCLC = tested on: HOP-62 NSCLC
HOP-92 NSCLC = tested on: HOP-92 NSCLC
HS 578T breast = tested on: HS 578T breast
HT29 colon = tested on: HT29 colon
IGROV1 ovarian = tested on: IGROV1 ovarian
K-562 leukemia = tested on: K-562 leukemia
KM12 colon = tested on: KM12 colon
LOX IMVI melanoma = tested on: LOX IMVI melanoma
M14 melanoma = tested on: M14 melanoma
MALME-3M melanoma = tested on: MALME-3M melanoma
MCF7 breast = tested on: MCF7 breast
MDA-MB-231 breast = tested on: MDA-MB-231 breast
MDA-MB-435 = tested on: MDA-MB-435
MOLT-4 leukemia = tested on: MOLT-4 leukemia
NCI-H23 lung = tested on: NCI-H23 lung
NCI-H460 lung = tested on: NCI-H460 lung
NCI-H522 lung = tested on: NCI-H522 lung
NCI/ADR-RES ovarian = tested on: NCI/ADR-RES ovarian
OVCAR-3 ovarian = tested on: OVCAR-3 ovarian
OVCAR-4 ovarian = tested on: OVCAR-4 ovarian
OVCAR-5 ovarian = tested on: OVCAR-5 ovarian
OVCAR-8 ovarian = tested on: OVCAR-8 ovarian
PC-3 prostate = tested on: PC-3 prostate
RPMI-8226 leukemia = tested on: RPMI-8226 leukemia
RXF 393 renal = tested on: RXF 393 renal
SF-268 CNS = tested on: SF-268 CNS
SF-295 CNS = tested on: SF-295 CNS
SF-539 CNS = tested on: SF-539 CNS
SK-MEL-2 melanoma = tested on: SK-MEL-2 melanoma
SK-MEL-28 melanoma = tested on: SK-MEL-28 melanoma
SK-MEL-5 melanoma = tested on: SK-MEL-5 melanoma
SK-OV-3 ovarian = tested on: SK-OV-3 ovarian
SN12C renal = tested on: SN12C renal
SNB-19 CNS = tested on: SNB-19 CNS
SNB-75 CNS = tested on: SNB-75 CNS
SR leukemia = tested on: SR leukemia
SW-620 colon = tested on: SW-620 colon
T-47D breast = tested on: T-47D breast
TK-10 renal = tested on: TK-10 renal
U251 CNS = tested on: U251 CNS
UACC-257 melanoma = tested on: UACC-257 melanoma
UACC-62 melanoma = tested on: UACC-62 melanoma
UO-31 renal = tested on: UO-31 renal

Q: For `O=C(c1ccco1)c1nc2cc(C(F)(F)F)ccc2[n+]([O-])c1C(F)(F)F`, which GI50 (786-0 renal) is on record?
A: 83.6 µM

Q: What about the TGI (786-0 renal) of the same compound?
A: > 100 µM

Q: What about the GI50 (A498 renal) of the same compound?
A: 39.3 µM

Q: And the TGI (A498 renal)?
A: > 100 µM

Q: And the GI50 (A549 NSCLC)?
A: > 100 µM

Q: And the TGI (A549 NSCLC)?
A: > 100 µM

Q: And the GI50 (ACHN renal)?
A: 47.1 µM

Q: And the TGI (ACHN renal)?
A: > 100 µM

Q: And the GI50 (BT-549 breast)?
A: 63 µM

Q: What about the TGI (BT-549 breast) of the same compound?
A: > 100 µM

Q: What about the GI50 (CAKI-1 renal) of the same compound?
A: > 100 µM

Q: And the TGI (CAKI-1 renal)?
A: > 100 µM

Q: What about the GI50 (CCRF-CEM leukemia) of the same compound?
A: 60.2 µM

Q: And the TGI (CCRF-CEM leukemia)?
A: > 100 µM

Q: And the GI50 (COLO 205 colon)?
A: 43.8 µM

Q: What about the TGI (COLO 205 colon) of the same compound?
A: > 100 µM

Q: What about the GI50 (DU-145 prostate) of the same compound?
A: 61.7 µM

Q: And the TGI (DU-145 prostate)?
A: > 100 µM

Q: What about the GI50 (EKVX NSCLC) of the same compound?
A: 34 µM

Q: What about the TGI (EKVX NSCLC) of the same compound?
A: > 100 µM

Q: And the GI50 (HCC-2998 colon)?
A: > 100 µM

Q: What about the TGI (HCC-2998 colon) of the same compound?
A: > 100 µM

Q: And the GI50 (HCT-116 colon)?
A: 38.5 µM

Q: What about the TGI (HCT-116 colon) of the same compound?
A: > 100 µM

Q: And the GI50 (HCT-15 colon)?
A: 56.5 µM

Q: What about the TGI (HCT-15 colon) of the same compound?
A: > 100 µM

Q: What about the GI50 (HL-60(TB) leukemia) of the same compound?
A: 78.1 µM

Q: And the TGI (HL-60(TB) leukemia)?
A: > 100 µM

Q: What about the GI50 (HOP-62 NSCLC) of the same compound?
A: 71.7 µM

Q: What about the TGI (HOP-62 NSCLC) of the same compound?
A: > 100 µM

Q: What about the GI50 (HOP-92 NSCLC) of the same compound?
A: 36.7 µM

Q: What about the TGI (HOP-92 NSCLC) of the same compound?
A: > 100 µM

Q: And the GI50 (HS 578T breast)?
A: 51.9 µM

Q: And the TGI (HS 578T breast)?
A: > 100 µM

Q: And the GI50 (HT29 colon)?
A: 33.6 µM

Q: And the TGI (HT29 colon)?
A: > 100 µM

Q: What about the GI50 (IGROV1 ovarian) of the same compound?
A: 34.9 µM

Q: And the TGI (IGROV1 ovarian)?
A: > 100 µM

Q: What about the GI50 (K-562 leukemia) of the same compound?
A: 48.9 µM

Q: What about the TGI (K-562 leukemia) of the same compound?
A: > 100 µM

Q: What about the GI50 (KM12 colon) of the same compound?
A: 17.4 µM

Q: What about the TGI (KM12 colon) of the same compound?
A: > 100 µM

Q: What about the GI50 (LOX IMVI melanoma) of the same compound?
A: 40.1 µM

Q: And the TGI (LOX IMVI melanoma)?
A: > 100 µM

Q: What about the GI50 (M14 melanoma) of the same compound?
A: 43.8 µM

Q: What about the TGI (M14 melanoma) of the same compound?
A: > 100 µM

Q: What about the GI50 (MALME-3M melanoma) of the same compound?
A: 33 µM

Q: What about the TGI (MALME-3M melanoma) of the same compound?
A: > 100 µM

Q: What about the GI50 (MCF7 breast) of the same compound?
A: 6.57 µM

Q: What about the TGI (MCF7 breast) of the same compound?
A: > 100 µM

Q: And the GI50 (MDA-MB-231 breast)?
A: 68.8 µM

Q: And the TGI (MDA-MB-231 breast)?
A: > 100 µM

Q: What about the GI50 (MDA-MB-435) of the same compound?
A: 37 µM

Q: And the TGI (MDA-MB-435)?
A: > 100 µM

Q: And the GI50 (MOLT-4 leukemia)?
A: 90.3 µM

Q: And the TGI (MOLT-4 leukemia)?
A: > 100 µM

Q: What about the GI50 (NCI-H23 lung) of the same compound?
A: 35.6 µM

Q: What about the TGI (NCI-H23 lung) of the same compound?
A: > 100 µM

Q: What about the GI50 (NCI-H460 lung) of the same compound?
A: 61 µM

Q: And the TGI (NCI-H460 lung)?
A: > 100 µM

Q: What about the GI50 (NCI-H522 lung) of the same compound?
A: 34.1 µM

Q: What about the TGI (NCI-H522 lung) of the same compound?
A: > 100 µM

Q: What about the GI50 (NCI/ADR-RES ovarian) of the same compound?
A: 32.4 µM

Q: And the TGI (NCI/ADR-RES ovarian)?
A: > 100 µM

Q: And the GI50 (OVCAR-3 ovarian)?
A: 30.5 µM

Q: What about the TGI (OVCAR-3 ovarian) of the same compound?
A: > 100 µM

Q: What about the GI50 (OVCAR-4 ovarian) of the same compound?
A: 17.9 µM

Q: And the TGI (OVCAR-4 ovarian)?
A: 55.2 µM

Q: What about the GI50 (OVCAR-5 ovarian) of the same compound?
A: 31.5 µM

Q: What about the TGI (OVCAR-5 ovarian) of the same compound?
A: > 100 µM

Q: What about the GI50 (OVCAR-8 ovarian) of the same compound?
A: > 100 µM

Q: What about the TGI (OVCAR-8 ovarian) of the same compound?
A: > 100 µM

Q: What about the GI50 (PC-3 prostate) of the same compound?
A: 43.3 µM

Q: What about the TGI (PC-3 prostate) of the same compound?
A: > 100 µM

Q: And the GI50 (RPMI-8226 leukemia)?
A: 20.3 µM

Q: What about the TGI (RPMI-8226 leukemia) of the same compound?
A: > 100 µM

Q: What about the GI50 (RXF 393 renal) of the same compound?
A: 61.4 µM

Q: And the TGI (RXF 393 renal)?
A: > 100 µM

Q: What about the GI50 (SF-268 CNS) of the same compound?
A: 52.4 µM

Q: What about the TGI (SF-268 CNS) of the same compound?
A: > 100 µM

Q: And the GI50 (SF-295 CNS)?
A: 51.3 µM

Q: What about the TGI (SF-295 CNS) of the same compound?
A: > 100 µM

Q: And the GI50 (SF-539 CNS)?
A: 81.8 µM

Q: And the TGI (SF-539 CNS)?
A: > 100 µM

Q: What about the GI50 (SK-MEL-2 melanoma) of the same compound?
A: 46 µM

Q: And the TGI (SK-MEL-2 melanoma)?
A: > 100 µM

Q: What about the GI50 (SK-MEL-28 melanoma) of the same compound?
A: 41.4 µM

Q: And the TGI (SK-MEL-28 melanoma)?
A: > 100 µM

Q: What about the GI50 (SK-MEL-5 melanoma) of the same compound?
A: 33.3 µM

Q: What about the TGI (SK-MEL-5 melanoma) of the same compound?
A: > 100 µM

Q: What about the GI50 (SK-OV-3 ovarian) of the same compound?
A: > 100 µM

Q: What about the TGI (SK-OV-3 ovarian) of the same compound?
A: > 100 µM

Q: What about the GI50 (SN12C renal) of the same compound?
A: 65.1 µM

Q: And the TGI (SN12C renal)?
A: > 100 µM

Q: What about the GI50 (SNB-19 CNS) of the same compound?
A: 48.3 µM

Q: What about the TGI (SNB-19 CNS) of the same compound?
A: > 100 µM

Q: What about the GI50 (SNB-75 CNS) of the same compound?
A: 23 µM

Q: What about the TGI (SNB-75 CNS) of the same compound?
A: 90.9 µM

Q: And the GI50 (SR leukemia)?
A: 41.4 µM

Q: What about the TGI (SR leukemia) of the same compound?
A: > 100 µM

Q: And the GI50 (SW-620 colon)?
A: 37.5 µM

Q: What about the TGI (SW-620 colon) of the same compound?
A: > 100 µM

Q: And the GI50 (T-47D breast)?
A: 19.2 µM

Q: What about the TGI (T-47D breast) of the same compound?
A: > 100 µM

Q: And the GI50 (TK-10 renal)?
A: 50.8 µM

Q: And the TGI (TK-10 renal)?
A: > 100 µM

Q: And the GI50 (U251 CNS)?
A: 37 µM

Q: And the TGI (U251 CNS)?
A: > 100 µM

Q: What about the GI50 (UACC-257 melanoma) of the same compound?
A: 69.8 µM

Q: And the TGI (UACC-257 melanoma)?
A: > 100 µM

Q: And the GI50 (UACC-62 melanoma)?
A: 45.9 µM

Q: What about the TGI (UACC-62 melanoma) of the same compound?
A: > 100 µM

Q: What about the GI50 (UO-31 renal) of the same compound?
A: 58.8 µM

Q: What about the TGI (UO-31 renal) of the same compound?
A: > 100 µM
